Consider two compounds from patent US4749710A, “Immunosuppressive agents” (priority 1985, dated 1988).

Structures are written as SMILES. Like-named read-outs stand apart in the source and are kept apart here.

In general, inhibition refers to the percentage by which the read-out fell short of the control.

Holding throughout (format): cell-based
Test [1] concerns IgG production by human lymphocytes. The test is described as follows: Inhibition of IgG production by human lymphocytes in vitro (SAC activation, ELISA). The settings on record: 8 days, vehicle control 0.78 ± 0.09. From the text:
(§1) General Test Description Humoral immunity comprises one of the two major arms of the immune system and generally is beneficial. However, a number of disease states are characterized by a hyperactive immune system responding to self tissue antigens. […] In these diseases it would be important to suppress the humoral immune system.
(§2) In the following studies we used established methods to examine the effect of Vitamin D derivatives on the in vitro production of immunoglobulin (Ig) by human peripheral blood leukocytes (PBL) following polyclonal activation. Immunoglobulin was induced from PBL by co-culturing the PBL with the polyclonal B cell activator Staphylococcus aureus strain Cowan I (SAC) for a period of 8 days. The quantity of Ig produced in the culture supernatants was determined by using an enzyme linked immunosorbent assay (ELISA). The effect of Vitamin D derivatives was determined by comparing the amount of antibody produced in cultures containing Vitamin D derivatives to those cultures containing an appropriate concentration of vehicle (ethanol).
(§3) Solutions of vitamin D derivatives. Stock solutions of vitamin D derivatives were prepared as described previously for the murine CTL experiments.
(§4) INDUCTION OF HUMAN IG SECRETION Human peripheral blood mononuclear leukocytes were prepared from one day old buffy coat preparations obtained from the American Red Cross (Lansing, MI). […] Twenty five ml of this preparation were overlayed onto 25 ml of Ficoll-Paque contained in a 50 ml polypropylene centrifuge tube. After centrifugation at 400×g at 15° C. for 40 min, the cells at the interface of the medium and Ficoll were removed and washed 3 times in 50 ml RPMI medium and centrifuged at 300×g for 10 minutes. After the final centrifugation,the cell pellet was suspended in RPMI medium containing 20% fetal bovine serum (FBS) and 80 μg/ml gentamicin. The number of viable cells was determined by trypan blue exclusion and were then suspended to 2.5×10^6 viable cells per ml in RPMI containing 20% FBS and gentamicin. Human PBL were induced to secrete Ig as follows. One hundred microliters of the PBL suspension and an additional 100 μl of a 1:20,000 (v/v) preparation of SAC suspended in RPMI containing 1% FBS were added to each well of a 96-well microtiter plate. Selected wells were also set up without the addition of SAC to serve as negative controls (spontaneous Ig secretion). Each well then received 20 μl of either the appropriate dilution of Vitamin D derivative in RPMI with 1% ethanol or RPMI with 1% ethanol (vehicle control). The vitamin D derivatives were tested at final concentrations of 10^-5, 10^-6, 10^-7, 10^-8, 10^-9, and 10^-10 M and in all cases the vehicle (ethanol) concentration was 0.1%. All treatments were performed in triplicate. […] The samples were then either assayed immediately or stored at -20° C. until assayed by the ELISA technique described below.
(§5) QUANTITATION OF SECRETED IG (ELISA ASSAY) ELISA plates were prepared for quantitating human IgG and IgM levels in culture supernatants as follows. Affinity purified sheep anti-human IgG and goat anti-human IgM (Cappel, Cochranville, PA) were diluted 1:250 and 1:400 respectively, in carbonate coating buffer (0.05M sodium bicarbonate, 0.05M sodium carbonate, 0.15M sodium chloride). One hundred and fifty microliters of the antibody preparation were added to each well of a 96 well ELISA plate (EIA, Costar). The plates were sealed and incubated overnight at 4° C. and on the following day were washed 3 times with distilled water. Each well then received 350 μl of Dulbecco's PBS containing 1 mg/ml bovine serum albumin (BSA) and 0.5 mg/ml sodium azide. The plates were allowed to incubate for 1 hour at 37° C. and then washed 3 times with Dulbecco's PBS containing 0.5% stock Tween 20 (PBS-Tween) followed by 2 washes with distilled water. The plates were air dried and stored desiccated under a vacuum at 4° C. until use.

The subject of test [2] is human cytotoxic T-lymphocyte responses. The test is described as follows: Inhibition of human CTL responses (mixed leukocyte-tumor cultures, HT-144 melanoma, ^51 Cr release). The settings on record: donor I, 0.01% ethanol, effector to target 6:1; for inhibition at 1 µM / inhibition at 0.1 µM / inhibition at 10 µM: Homo sapiens, T-lymphocyte. As to the method:
Human cells for the tests described below were taken from four donors designated I, II, III, and IV in the tables below.
Stock solutions of Vitamin D derivatives were prepared as they were prepared above in the murine tests.
Human cytotoxic T-lymphocytes were generated in mixed leukocyte-tumor cultures by known methods. Specifically, blood from normal volunteer donors was drawn into heparinized syringes, diluted 1:1 with calcium-magnesium free Hanks' balanced salt solution (Ca-Mg free HBSS), and layered over lymphocyte separation medium (Litton Bionetics, Kensington, MD). After centrifugation at 500xg for 20-30 min at room temperature, peripheral blood mononuclear cells were harvested from the interface. The peripheral blood mononuclear leukocytes were centrifuged and resuspended in Ca-Mg free HBSS and were subsequently separated from platelets by centrifugation at 500xg through a solution of 20% sucrose and 1% human AB serum in Ca-Mg free HBSS. The cells were washed once and finally resuspended in tissue culture medium. […] Cells to be used as stimulator cells in mixed leukocyte-tumor cultures were irradiated with 10,000 rads of gamma irradiation to preclude proliferation in culture. Mixed leukocyte-tumor cell cultures were established in 16 mm tissue culture wells at a final volume of 1.5 ml per well containing 2×10^6 peripheral blood mononuclear leukocytes and 5×10^4 irradiation-inactivated stimulator cells. In order to prevent the generation of nonspecific cytotoxic cells in these cultures, hydrocortisone sodium succinate was added to each culture at a final concentration of 1×10^-5 M. Mixed leukocyte-tumor cultures were incubated for 6 days in a humidified atmosphere of 5% CO2 in air.
Labelled target cells were washed free of unbound isotope by 3 serial washes in tissue culture medium and were finally resuspended at a concentration of 5×10^4 cells per ml.
Assays of human cytotoxic T-lymphocytes were done by known methods. Specifically, one-tenth ml aliquots of ^51 Cr-labelled target cell suspension were added to "half area" microtest plates and were incubated at 37° C. for 18 hours in a humidified atmosphere of 5% CO2 in air to permit the cells to adhere and spread on the floor of each well. Culture medium was then aspirated from each well and was replaced with 0.1 ml of tissue culture medium containing cells harvested from mixed leukocyte-tumor cultures which had been processed as described for murine mixed leukocute cultures, above. Control wells for measurement of spontaneous ^51 Cr release received medium without effector cells and wells for measurement of maximal releasable ^51 Cr received 0.1 ml of 2% sodium dodecyl sulfate in distilled water. After overnight incubation at 37° in a humidified atmosphere of 5% CO2 in air, 0.05 ml of cell-free supernatant was withdrawn from each well and the amount of released ^51 Cr was quantitated using a gamma spectrometer. The percentage of specific ^51 Cr release (CTL activity) and the percent inhibition of CTL activity were calculated with the same formulas used above for the murine CTL assay.
Tests conducted on human cytotoxic T-lymphocyte responses are reported as the mean±standard error of the mean from triplicate ^51 Cr release determinations on pooled cells from duplicate control or test cultures.

For test [3], the system named is IgM production by human lymphocytes. The test is described as follows: Inhibition of IgM production by human lymphocytes in vitro (SAC activation, ELISA). Particulars: 8 days, vehicle control 2.49 ± 0.17.
Description: as §1, §2, §3, §4, §5
(ELISA stands for enzyme-linked immunosorbent assay.)

On to `C=C1/C(=C/C=C2\CCC[C@]3(C)[C@@H]([C@H](C)CCCC(C)(C)O)CC[C@@H]23)C[C@@H](O)C[C@@H]1O` [5,6-trans-1α,25-(OH)2 --D3, 1α,25-Dihydroxy-5,6-trans-cholecalciferol], for which the “IgG μg per culture (x ± S.E.M.)” value in test [1] (1 × 10^-6 molar) was “undetectable”; in test [1] (1 × 10^-7 molar), 0.01 ± 0.001 μg per culture; in test [1] (1 × 10^-8 molar), 0.21 ± 0.12 μg per culture; in test [1] (1 × 10^-9 molar), 0.29 ± 0.05 μg per culture; in test [1] (1 × 10^-10 molar) it was 0.55 ± 0.16 μg per culture. In addition, the inhibition at 1 µM came out at 62% in test [2] (read-out: Inhibition of CTL activity (%), Test 1, 1 × 10^-6 molar) and 74% in test [2] (read-out: Inhibition of CTL activity (%), Test 2, 1 × 10^-6 molar). Also, in test [2] (read-out: Inhibition of CTL activity (%), Test 1, 1 × 10^-7 molar), the inhibition at 0.1 µM worked out at 62%. In test [2] (read-out: Inhibition of CTL activity (%), Test 2, 1 × 10^-5 molar), the inhibition at 10 µM amounted to 60%. The “CTL activity (% specific ^51 Cr release)” value is 20 ± 2 % specific ^51 Cr release in test [2] (Test 1, 1 × 10^-6 molar); 20 ± 2 % specific ^51 Cr release in test [2] (Test 1, 1 × 10^-7 molar); 17 ± 3 % specific ^51 Cr release in test [2] (Test 2, 1 × 10^-5 molar); 11 ± 2 % specific ^51 Cr release in test [2] (Test 2, 1 × 10^-6 molar). The “IgM μg per culture (x ± S.E.M.)” value in test [3] (1 × 10^-6 molar) is listed as “undetectable”; in test [3] (1 × 10^-7 molar) it was 0.04 ± 0.01 μg per culture; in test [3] (1 × 10^-8 molar), 0.50 ± 0.21 μg per culture; in test [3] (1 × 10^-9 molar), 2.36 ± 0.27 μg per culture; in test [3] (1 × 10^-10 molar) it was 2.79 ± 0.18 μg per culture.
Turning to `C=C1/C(=C\C=C2/CCC[C@]3(C)[C@@H]([C@H](C)CCC(F)(F)C(C)(C)O)CC[C@@H]23)C[C@@H](O)C[C@@H]1O` [24,24-(F)2 --1α,25-(OH)2 --D3, 1α,25-Dihydroxy-24,24-difluorocholecalciferol], the “IgG μg per culture (x ± S.E.M.)” value was “undetectable” in test [1] (1 × 10^-6 molar); “undetectable” in test [1] (1 × 10^-7 molar); 0.01 ± 0.003 μg per culture in test [1] (1 × 10^-8 molar); 0.02 ± 0.02 μg per culture in test [1] (1 × 10^-9 molar); 0.11 ± 0.03 μg per culture in test [1] (1 × 10^-10 molar). For the same compound, the inhibition at 1 µM is 71% in test [2] (Test 1, 1 × 10^-6 molar, read-out: Inhibition of CTL activity (%)) and 91% in test [2] (Test 2, 1 × 10^-6 molar, read-out: Inhibition of CTL activity (%)). In addition, the inhibition at 0.1 µM in test [2] (Test 1, 1 × 10^-7 molar, read-out: Inhibition of CTL activity (%)) is 81%. Also, in test [2] (Test 2, 1 × 10^-5 molar, read-out: Inhibition of CTL activity (%)), the inhibition at 10 µM came to 83%. The “CTL activity (% specific ^51 Cr release)” value stood at 15 ± 1 % specific ^51 Cr release in test [2] (Test 1, 1 × 10^-6 molar); 10 ± 1 % specific ^51 Cr release in test [2] (Test 1, 1 × 10^-7 molar); 9 ± 2 % specific ^51 Cr release in test [2] (Test 2, 1 × 10^-5 molar); 5 ± 2 % specific ^51 Cr release in test [2] (Test 2, 1 × 10^-6 molar). The “IgM μg per culture (x ± S.E.M.)” value in test [3] (1 × 10^-6 molar) is given as “undetectable”; in test [3] (1 × 10^-7 molar), “undetectable”; in test [3] (1 × 10^-8 molar), “undetectable”; in test [3] (1 × 10^-9 molar) it was “undetectable”; in test [3] (1 × 10^-10 molar), 0.50 ± 0.12 μg per culture.
